This note sets out measurements from patent US20030079241A1, “Premalignant, serially-transplantable breast tissue lines and uses thereof” (priority 2001, published 2003).

This assay relates to HPO line A. In words: Effect of tamoxifen on tumor development in mice with bilateral implants of HPO line A. In kind it is in vivo. As to conditions: mice receiving bilateral implants of HPO line A; after 15 weeks; all control vehicle mice developed bilateral tumors. The method, then: The instant invention also provides a method of using the above described premalignant serially-transplantable, hyperplastic outgrowth (HPO) breast tissue lines to screen for new chemopreventative agents against breast cancer. The serially-transplantable breast tissue lines are implanted into the inguinal mammary fat pads of syngeneic, non-transgenic recipient mice. Putative chemopreventative agents are administered to a subset of the implanted mice.
Breast tissue lines A, B, C, D, and E from zone 4 all express high levels of estrogen receptor, which is also expressed in human premalignant breast cells. This is important for testing chemopreventive agents that rely on this receptor. Moreover, the effects of tamoxifen on the development of tumors in mice receiving bilateral implants of HPO line A were examined.

SMILES strings stand for the structures.

Take `CC/C(=C(\c1ccccc1)c1ccc(OCCN(C)C)cc1)c1ccccc1` [tamoxifen]: the development of tumors result was “None of the mice receiving tamoxifen developed tumors after 15 weeks”.
